This note sets out measurements from patent US11447505B1, “Pyrrolo[2,3-b]pyridine compounds and their use in the treatment of cancer” (priority 2017, dated 2022).

The target in one experiment is MRCKα (Homo sapiens (Human), UniProt Q5VT25). Nature of the experiment: MRCKα kinase assay (IMAP fluorescence polarization). The format is biochemical. The note with it: 1 μM ATP; read-out: MRCK-a Average Ki. From the text: (§1) MRCKα, MRCKβ, ROCK1 and ROCK2 Kinase Assays
For orientation: Polarisation of emitted light reports the rotation of a fluorescent probe.

The target in the next experiment is MRCKβ (Homo sapiens (Human), UniProt Q9Y5S2). In words: MRCKβ kinase assay (IMAP fluorescence polarization). The format is biochemical. The conditions noted are these: 1 μM ATP; read-out: MRCK-B Average Ki.
Source text: as §1

Experiment [1] addresses T1, ROCK1 (Homo sapiens (Human), UniProt Q13464). Nature of the experiment: biochemical.
For the next experiment, the target named is ROCK2 (Homo sapiens (Human), UniProt O75116). In words: ROCK2 kinase assay (IMAP fluorescence polarization). The format is biochemical. The conditions noted are these: 1 μM ATP; read-out: ROCK2 Average Ki.
The target of experiment [2] is T1, ROCK1. The conditions noted are these: read-out: ROCK1 Average Ki; 1 μM ATP.

Each structure is given as a SMILES string. Read-outs that look alike come from different tables or passages of the source. Bounds are passed on as bounds.

Chain of MRCKα (Q5VT25 whole entry): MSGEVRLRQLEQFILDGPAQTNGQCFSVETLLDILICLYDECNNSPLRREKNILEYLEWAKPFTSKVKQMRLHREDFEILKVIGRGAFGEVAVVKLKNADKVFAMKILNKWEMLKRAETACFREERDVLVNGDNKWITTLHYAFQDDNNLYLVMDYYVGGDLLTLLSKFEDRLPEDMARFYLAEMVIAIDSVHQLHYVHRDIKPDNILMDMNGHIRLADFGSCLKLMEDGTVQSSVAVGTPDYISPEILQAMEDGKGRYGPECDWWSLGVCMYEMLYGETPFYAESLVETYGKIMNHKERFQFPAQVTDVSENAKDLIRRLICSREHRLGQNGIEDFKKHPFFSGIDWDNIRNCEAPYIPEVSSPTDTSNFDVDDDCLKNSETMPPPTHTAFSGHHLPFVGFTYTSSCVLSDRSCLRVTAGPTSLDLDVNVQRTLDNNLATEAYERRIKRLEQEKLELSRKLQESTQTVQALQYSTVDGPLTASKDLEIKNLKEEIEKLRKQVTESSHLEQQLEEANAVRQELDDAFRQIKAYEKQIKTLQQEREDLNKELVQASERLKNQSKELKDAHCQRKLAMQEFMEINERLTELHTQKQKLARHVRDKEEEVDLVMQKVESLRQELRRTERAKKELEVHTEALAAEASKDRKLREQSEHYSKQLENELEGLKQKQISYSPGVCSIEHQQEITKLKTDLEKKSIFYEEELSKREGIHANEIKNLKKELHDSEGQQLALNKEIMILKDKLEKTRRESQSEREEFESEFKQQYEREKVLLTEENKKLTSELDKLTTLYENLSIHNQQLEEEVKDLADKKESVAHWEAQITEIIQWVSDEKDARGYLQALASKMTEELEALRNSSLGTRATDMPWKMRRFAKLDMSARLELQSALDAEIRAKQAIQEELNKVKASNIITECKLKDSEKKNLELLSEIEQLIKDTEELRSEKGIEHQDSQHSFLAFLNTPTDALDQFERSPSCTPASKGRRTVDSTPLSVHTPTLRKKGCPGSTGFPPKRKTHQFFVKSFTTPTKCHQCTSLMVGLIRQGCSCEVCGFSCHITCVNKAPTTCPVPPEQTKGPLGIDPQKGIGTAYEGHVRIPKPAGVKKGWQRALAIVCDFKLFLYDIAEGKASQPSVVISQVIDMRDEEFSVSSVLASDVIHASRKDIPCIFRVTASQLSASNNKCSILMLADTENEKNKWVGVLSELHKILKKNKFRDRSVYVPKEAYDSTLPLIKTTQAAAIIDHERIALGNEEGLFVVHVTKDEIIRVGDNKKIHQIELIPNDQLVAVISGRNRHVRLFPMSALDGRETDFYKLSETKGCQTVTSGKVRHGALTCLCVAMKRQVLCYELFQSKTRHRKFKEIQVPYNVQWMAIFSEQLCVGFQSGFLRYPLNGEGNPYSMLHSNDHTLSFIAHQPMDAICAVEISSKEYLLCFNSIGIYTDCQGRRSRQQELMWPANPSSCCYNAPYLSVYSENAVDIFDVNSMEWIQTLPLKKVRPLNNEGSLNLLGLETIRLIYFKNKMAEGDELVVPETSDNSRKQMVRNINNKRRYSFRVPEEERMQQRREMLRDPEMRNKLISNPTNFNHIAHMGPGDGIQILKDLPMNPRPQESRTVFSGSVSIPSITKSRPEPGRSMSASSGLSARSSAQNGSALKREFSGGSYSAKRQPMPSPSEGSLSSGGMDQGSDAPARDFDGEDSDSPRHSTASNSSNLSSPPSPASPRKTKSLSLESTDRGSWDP
T1 sequence (Q13464 2-1354 limits assumed): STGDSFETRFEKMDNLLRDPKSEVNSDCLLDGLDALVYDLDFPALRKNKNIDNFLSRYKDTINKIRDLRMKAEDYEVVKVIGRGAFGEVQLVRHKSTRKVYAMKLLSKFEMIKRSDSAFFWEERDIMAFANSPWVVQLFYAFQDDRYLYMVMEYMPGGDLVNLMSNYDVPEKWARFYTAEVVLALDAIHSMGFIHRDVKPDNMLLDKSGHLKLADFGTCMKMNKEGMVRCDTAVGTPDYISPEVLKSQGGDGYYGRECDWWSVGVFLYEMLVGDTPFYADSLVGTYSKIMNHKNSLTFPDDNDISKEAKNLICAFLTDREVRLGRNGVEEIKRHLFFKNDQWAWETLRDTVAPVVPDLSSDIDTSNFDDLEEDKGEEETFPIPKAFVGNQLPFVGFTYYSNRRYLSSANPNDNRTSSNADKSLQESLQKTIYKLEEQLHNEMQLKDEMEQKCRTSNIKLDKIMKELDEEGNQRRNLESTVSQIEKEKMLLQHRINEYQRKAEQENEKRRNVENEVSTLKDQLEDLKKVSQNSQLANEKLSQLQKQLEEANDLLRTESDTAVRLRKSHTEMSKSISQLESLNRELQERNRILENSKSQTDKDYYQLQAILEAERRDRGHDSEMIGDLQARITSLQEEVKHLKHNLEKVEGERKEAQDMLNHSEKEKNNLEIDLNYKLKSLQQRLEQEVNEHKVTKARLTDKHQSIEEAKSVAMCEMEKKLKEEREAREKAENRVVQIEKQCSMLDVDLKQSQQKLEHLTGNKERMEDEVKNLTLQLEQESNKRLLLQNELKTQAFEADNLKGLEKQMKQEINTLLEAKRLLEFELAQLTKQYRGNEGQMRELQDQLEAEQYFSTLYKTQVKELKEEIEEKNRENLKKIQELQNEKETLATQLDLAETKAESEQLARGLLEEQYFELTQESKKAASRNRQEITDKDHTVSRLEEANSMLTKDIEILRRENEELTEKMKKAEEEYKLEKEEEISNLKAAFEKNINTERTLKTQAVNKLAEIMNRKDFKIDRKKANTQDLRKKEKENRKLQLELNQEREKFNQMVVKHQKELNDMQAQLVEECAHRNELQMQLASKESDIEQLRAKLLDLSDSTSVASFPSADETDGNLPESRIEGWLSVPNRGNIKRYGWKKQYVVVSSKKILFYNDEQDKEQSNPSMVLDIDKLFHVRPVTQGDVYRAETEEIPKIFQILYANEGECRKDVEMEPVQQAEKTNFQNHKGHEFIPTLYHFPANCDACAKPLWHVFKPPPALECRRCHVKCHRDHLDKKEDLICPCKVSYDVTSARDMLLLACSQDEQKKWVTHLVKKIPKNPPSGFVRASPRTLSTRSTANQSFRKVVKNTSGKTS
Chain of ROCK2 (O75116 whole entry): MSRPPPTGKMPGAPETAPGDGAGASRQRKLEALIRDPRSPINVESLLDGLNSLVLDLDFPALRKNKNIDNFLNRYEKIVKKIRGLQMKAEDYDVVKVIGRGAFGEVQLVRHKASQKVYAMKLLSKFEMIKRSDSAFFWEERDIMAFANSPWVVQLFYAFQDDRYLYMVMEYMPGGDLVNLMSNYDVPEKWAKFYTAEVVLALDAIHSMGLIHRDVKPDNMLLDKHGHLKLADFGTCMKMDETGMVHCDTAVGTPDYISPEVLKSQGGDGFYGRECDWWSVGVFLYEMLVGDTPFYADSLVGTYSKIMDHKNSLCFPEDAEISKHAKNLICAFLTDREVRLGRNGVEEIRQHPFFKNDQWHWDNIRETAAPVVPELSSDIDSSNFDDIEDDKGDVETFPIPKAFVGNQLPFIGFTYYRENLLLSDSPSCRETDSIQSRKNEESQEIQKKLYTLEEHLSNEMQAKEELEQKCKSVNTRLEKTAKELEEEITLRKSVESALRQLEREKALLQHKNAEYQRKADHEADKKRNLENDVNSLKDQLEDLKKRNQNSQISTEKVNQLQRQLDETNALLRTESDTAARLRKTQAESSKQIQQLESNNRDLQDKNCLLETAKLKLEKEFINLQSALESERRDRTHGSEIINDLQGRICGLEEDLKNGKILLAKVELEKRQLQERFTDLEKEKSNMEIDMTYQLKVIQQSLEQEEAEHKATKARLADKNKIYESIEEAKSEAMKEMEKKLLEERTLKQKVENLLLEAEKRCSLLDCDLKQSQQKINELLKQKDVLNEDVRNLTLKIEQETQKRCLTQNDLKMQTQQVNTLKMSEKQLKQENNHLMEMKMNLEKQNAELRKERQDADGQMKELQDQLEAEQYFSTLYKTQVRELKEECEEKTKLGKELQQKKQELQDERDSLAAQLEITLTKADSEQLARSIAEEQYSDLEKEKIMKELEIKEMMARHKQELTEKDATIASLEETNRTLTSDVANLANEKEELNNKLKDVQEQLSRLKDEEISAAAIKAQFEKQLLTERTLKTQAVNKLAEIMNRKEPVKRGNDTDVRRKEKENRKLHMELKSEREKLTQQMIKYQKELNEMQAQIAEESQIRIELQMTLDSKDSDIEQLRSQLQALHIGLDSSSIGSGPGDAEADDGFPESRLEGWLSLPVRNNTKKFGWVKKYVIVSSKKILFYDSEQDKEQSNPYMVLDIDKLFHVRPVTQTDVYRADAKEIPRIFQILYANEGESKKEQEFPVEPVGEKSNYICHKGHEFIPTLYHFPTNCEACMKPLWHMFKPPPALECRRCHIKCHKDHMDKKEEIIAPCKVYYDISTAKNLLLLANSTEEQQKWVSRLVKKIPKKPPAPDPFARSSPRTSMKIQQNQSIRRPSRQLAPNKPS

Take `CN1CCC[C@@H](COc2ccnc3[nH]cc(-c4cncnc4)c23)C1` [Example E224, 4-[[(3R)-1-methyl-3-piperidyl]methoxy]-3-pyrimidin-5-yl-1H-pyrrolo[2,3-b]pyridine]: the Ki at MRCKα is 1.91 nM; on MRCKβ it was 3.29 nM; on ROCK1 [1], 152 nM; at ROCK2 it was 102 nM.
On to `N#Cc1c[nH]c2nccc(N3CCC[C@@H]3CO)c12` [Example E39, 4-[(2R)-2-(hydroxymethyl)pyrrolidin-1-yl]-1H-pyrrolo[2,3-b]pyridine-3-carbonitrile], for which the Ki on MRCKβ is 29.7 nM; on ROCK1 [1], 103 nM; on ROCK2, 86.8 nM.
With `N#Cc1c[nH]c2nccc(N3CCC4(CCCCN4)C3)c12` (stereo not drawn) [Example E184, 4-(2,6-diazaspiro[4.5]decan-2-yl)-1H-pyrrolo[2,3-b]pyridine-3-carbonitrile], at ROCK1 [1], the Ki is 21.9 nM.
With `c1cc(-c2c[nH]c3nccc(N4CCC[C@H](NC5CC5)C4)c23)ncn1` [Example E41, (3S)—N-cyclopropyl-1-(3-pyrimidin-4-yl-1H-pyrrolo[2,3-b]pyridin-4-yl)piperidin-3-amine], the Ki on MRCKβ is 0.202 nM; on ROCK1 [1] it was 34.4 nM.
Consider `CN(C)C1CCCN(c2ccnc3[nH]cc(-c4cncnc4)c23)C1` (stereo not drawn) [Example E60, N,N-dimethyl-1-(3-pyrimidin-5-yl-1H-pyrrolo[2,3-b]pyridin-4-yl)piperidin-3-amine], for which the inhibitory constant (Ki) is 13.6 nM at MRCKβ, 404 nM at ROCK1 [1] and 201 nM on ROCK2.
For `Brc1cnc2[nH]cc(-c3cc[nH]n3)c2c1N1CCCCC1` [Example E70, 5-bromo-4-(1-piperidyl)-3-(1H-pyrazol-3-yl)-1H-pyrrolo[2,3-b]pyridine], the inhibition constant Ki at MRCKβ came to 346 nM; on ROCK1 [1], 1300 nM; at ROCK2 it was 276 nM.
Regarding `N#Cc1c[nH]c2nccc(N3CCC[C@H]3COc3ccccc3)c12` [Example E40, 4-[(2S)-2-(phenoxymethyl)pyrrolidin-1-yl]-1H-pyrrolo[2,3-b]pyridine-3-carbonitrile], the Ki on MRCKβ came out at 247 nM; on ROCK1 [1], 2150 nM; on ROCK2, 1070 nM.
The matching figures for `CN1CCCN(C(=O)[C@@H]2CCCN2c2ccnc3[nH]cc(C#N)c23)CC1` [Example E201, 4-[(2S)-2-(4-methyl-1,4-diazepane-1-carbonyl)pyrrolidin-1-yl]-1H-pyrrolo[2,3-b]pyridine-3-carbonitrile]: 147 nM, 1050 nM and 703 nM.
For `N#Cc1c[nH]c2nccc(N3CC[C@@H](N)C3)c12` [Example E197, 4-[(3R)-3-aminopyrrolidin-1-yl]-1H-pyrrolo[2,3-b]pyridine-3-carbonitrile] the same measures were 8.82 nM, 19.8 nM and 7 nM.
The matching figures for `OC1CCN([C@H]2CCCN(c3ccnc4[nH]cc(-c5cncnc5)c34)C2)CC1` [Example E92, 1-[(3S)-1-(3-pyrimidin-5-yl-1H-pyrrolo[2,3-b]pyridin-4-yl)-3-piperidyl]piperidin-4-ol]: 4.97 nM, 5000 nM and 1510 nM.
Consider `CN[C@H]1CCCN(c2ccnc3[nH]cc(-c4cc[nH]n4)c23)C1` [Example E83, (3S)-N-methyl-1-[3-(1H-pyrazol-3-yl)-1H-pyrrolo[2,3-b]pyridin-4-yl]piperidin-3-amine], for which the Ki was 0.481 nM on MRCKα, 1.85 nM on MRCKβ, 1110 nM at ROCK1 [1] and 196 nM on ROCK2.
Regarding `CN1CC[C@H]2CN(c3ccnc4[nH]cc(-c5cncnc5)c34)CC[C@H]21` [Example E200, 4-[(3aS,7aR)-1-methyl-3,3a,4,6,7,7a-hexahydro-2H-pyrrolo[3,2-c]pyridin-5-yl]-3-pyrimidin-5-yl-1H-pyrrolo[2,3-b]pyridine], the Ki at MRCKβ was found to be 3.13 nM; on ROCK1 [1] it was 196 nM; at ROCK2, 145 nM.
For `CN1CC[C@@H]2CCN(c3ccnc4[nH]cc(-c5cncnc5)c34)C[C@@H]21` [Example E180, 4-[(3aR,7aR)-1-methyl-3,3a,4,5,7,7a-hexahydro-2H-pyrrolo[2,3-c]pyridin-6-yl]-3-pyrimidin-5-yl-1H-pyrrolo[2,3-b]pyridine] the same measures were 124 nM, 3420 nM and 1580 nM.
For the molecule `c1ncc(-c2c[nH]c3nccc(OC[C@H]4CCCNC4)c23)cn1` [Example E218, 4-[[(3S)-3-piperidyl]methoxy]-3-pyrimidin-5-yl-1H-pyrrolo[2,3-b]pyridine], the Ki on MRCKα is 0.189 nM; on MRCKβ it was 1.15 nM; on ROCK1 [1], 18.6 nM; on ROCK2, 17.6 nM.
In the case of `N#Cc1c[nH]c2nccc(N3CCC[C@H]3CO)c12` [Example E38, 4-[(2S)-2-(hydroxymethyl)pyrrolidin-1-yl]-1H-pyrrolo[2,3-b]pyridine-3-carbonitrile], the inhibition constant (Ki) amounted to 5.08 nM at MRCKβ, 16.7 nM on ROCK1 [1] and 12.7 nM at ROCK2.
Turning to `c1ncc(-c2c[nH]c3nccc(N[C@H]4CCCNC4)c23)cn1` [Example E87, N-[(3S)-3-piperidyl]-3-pyrimidin-5-yl-1H-pyrrolo[2,3-b]pyridin-4-amine], the Ki at MRCKα stood at 33.6 nM; on MRCKβ, 54.3 nM; at ROCK1 [1], 50300 nM; on ROCK2 it was 326 nM.
For the molecule `O[C@@H]1CCCN(c2ccnc3[nH]cc(-c4cncnc4)c23)C1` [Example E100, (3R)-1-(3-pyrimidin-5-yl-1H-pyrrolo[2,3-b]pyridin-4-yl)piperidin-3-ol], the figures for the Ki on MRCKβ, on ROCK1 [1] and on ROCK2 were 71.3 nM, 505 nM and 277 nM, respectively.
The matching figures for `Nc1cncc(-c2c[nH]c3nccc(N4CCCCC4)c23)c1` [Example E6, 5-[4-(1-piperidyl)-1H-pyrrolo[2,3-b]pyridin-3-yl]pyridin-3-amine]: 1.11 nM, 3.5 nM and 1.9 nM.
With `c1ncc(-c2c[nH]c3nccc(OC[C@@H]4CCCNC4)c23)cn1` [Example E214, 4-[[(3R)-3-piperidyl]methoxy]-3-pyrimidin-5-yl-1H-pyrrolo[2,3-b]pyridine], the Ki on MRCKβ came out at 1.07 nM; at ROCK1 [1] it was 42 nM; at ROCK2, 32.1 nM.
For the molecule `CNC1CCCN(c2ccnc3[nH]cc(-c4cncnc4)c23)CC1` (stereo not drawn) [Example E68, N-methyl-1-(3-pyrimidin-5-yl-1H-pyrrolo[2,3-b]pyridin-4-yl)azepan-4-amine], the Ki came to 0.382 nM on MRCKα, 1.09 nM on MRCKβ, 55.9 nM at ROCK1 [2] and 36.9 nM at ROCK2.
For `NCC1CCCN(c2ccnc3[nH]cc(-c4cncnc4)c23)C1` (stereo not drawn) [Example E86, [1-(3-pyrimidin-5-yl-1H-pyrrolo[2,3-b]pyridin-4-yl)-3-piperidyl]methanamine] the same measures were 4.6 nM, 1.85 nM, 8.2 nM and 10.5 nM.
The matching figures for `CN[C@H]1CCCN(c2ccnc3[nH]cc(-c4cnn(C)c4)c23)C1` [Example E55, (3S)-N-methyl-1-[3-(1-methylpyrazol-4-yl)-1H-pyrrolo[2,3-b]pyridin-4-yl]piperidin-3-amine]: 18.9 nM, 7.31 nM, 301 nM and 129 nM.
For `c1cnnc(-c2c[nH]c3nccc(N4CCCC5(CCCCN5)C4)c23)c1` (stereo not drawn) [Example E175, 8-(3-pyridazin-3-yl-1H-pyrrolo[2,3-b]pyridin-4-yl)-1,8-diazaspiro[5.5]undecane] the same measures were 0.257 nM, 1.5 nM, 1860 nM and 547 nM.
Turning to `OC1CCN([C@H]2CCCN(c3ccnc4[nH]cc(-c5cncnc5)c34)C2)C1` (stereo partly drawn) [Example E93, [(3S)-1-(3-pyrimidin-5-yl-1H-pyrrolo[2,3-b]pyridin-4-yl)-3-piperidyl]pyrrolidin-3-ol], the inhibition constant Ki at MRCKα turned out to be 11.6 nM; on MRCKβ, 4.78 nM; at ROCK1 [1], 2380 nM; on ROCK2 it was 830 nM.
With `c1ncc(-c2c[nH]c3nccc(N4CCC[C@H](N5CCCC5)C4)c23)cn1` [Example E99, 3-pyrimidin-5-yl-4-[(3S)-3-pyrrolidin-1-yl-1-piperidyl]-1H-pyrrolo[2,3-b]pyridine], the Ki was found to be 5.8 nM on MRCKα, 3.81 nM on MRCKβ, 1680 nM on ROCK1 [2] and 603 nM at ROCK2.
With `N#Cc1c[nH]c2nccc(N3CCC[C@]4(CCCCN4)C3)c12` [Example E186, 4-[(6R)-1,8-diazaspiro[5.5]undecan-8-yl]-1H-pyrrolo[2,3-b]pyridine-3-carbonitrile], affinity at ROCK1 [1] was put at a Ki of 347 nM.
On to `c1cc(N2CCC[C@]3(CCCCN3)C2)c2c(-c3ncsn3)c[nH]c2n1` [Example E115, 3-[4-[(6R)-1,8-diazaspiro[5.5]undecan-8-yl]-1H-pyrrolo[2,3-b]pyridin-3-yl]-1,2,4-thiadiazole], for which the Ki on MRCKβ was 2.48 nM; on ROCK1 [1], ≥ 100000 nM.
Take `CN[C@H]1CCCN(c2ccnc3[nH]cc(-c4cn[nH]c4)c23)C1` [Example E84, (3S)-N-methyl-1-[3-(1H-pyrazol-4-yl)-1H-pyrrolo[2,3-b]pyridin-4-yl]piperidin-3-amine]: the Ki at MRCKα is 0.522 nM; at MRCKβ, 3.42 nM; at ROCK1 [2], 167 nM; at ROCK2, 37.2 nM.
The matching figures for `c1ncc(-c2c[nH]c3nccc(N4CCC[C@H](NC5CC5)C4)c23)cn1` [Example E81, (3S)-N-cyclopropyl-1-(3-pyrimidin-5-yl-1H-pyrrolo[2,3-b]pyridin-4-yl)piperidin-3-amine]: 0.935 nM, 3.36 nM, 357 nM and 184 nM.

A word on the Ki: it is a dissociation constant, usually derived from enzyme kinetics or from competition with a known ligand.
